Test results: patent US20060106102A1, “Napththalene derivatives which inhibit the cytokine or biological activity of microphage migration inhibitory factor (mif)” (priority 2002, published 2006)
Several values for one entry are separate records, joined by “and”; a condition that tells them apart may be missing. Equal values may be shown once. Read-outs that look alike come from different tables or passages of the source.

How the values were obtained:
[1] = system: IL-1-induced COX-2 expression; assay: IL-1-induced COX-2 expression in S112 human dermal fibroblasts (MIF-dependent event), flow cytometry; assay type: cell-based
How it was run: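 Human dermal fibroblasts seeded at 10^5 cells/ml in RPMI/0.1% BSA for 18 h, then IL-1 stimulated with or without compound. Saponin-permeabilised cells stained with anti-COX-2 mAb plus FITC secondary; flow cytometry MFI, negative control subtracted, duplicates. Result is % inhibition of IL-1-induced MFI, mean or mean±SEM.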

[2] = system: recombinant human macrophage migration inhibitory factor (MIF)-induced proliferation of S112 human dermal fibroblasts; assay: MIF-induced proliferation of S112 human dermal fibroblasts, 3H-thymidine incorporation; assay type: cell-based
Protocol: The activity of each compound was studied in a bioassay utilising MIF-induced proliferation of human dermal fibroblasts. S112 human dermal fibroblasts were propagated in RPMI/10% foetal calf serum (FCS). Prior to experimentation, cells were seeded at 10^5 cells/ml in RPMI/0.1% BSA for 18 hours. At time point zero, culture medium was replaced with RPMI/10% FCS and treatments administered. Cells were treated with recombinant human macrophage migration inhibitory factor (MIF) 50 ng/ml (1.353×10^−9 M) and/or the compound at a 1 or 1000 molar ratio to the concentration of MIF. In some experiments the compound was combined with MIF at time point −30 minutes, prior to adding at time point zero. At time point 30 hours, cells were pulsed with […]. At time point 48 hours, cells were harvested using a semi-automated cell harvester. The radioactivity incorporated into DNA was determined by liquid scintillation counting, with results expressed as [^3H] thymidine incorporation. The proliferation of untreated cells was expressed as 100% and the effect of MIF and each compound expressed in relative %.
The activity of compound 5 was studied in a bioassay utilising MIF-induced proliferation of human dermal fibroblasts. S112 human dermal fibroblasts were propagated in RPMI/10% foetal calf serum (FCS). Prior to experimentation, cells were seeded at 10^5 cells/ml in RPMII/0.1% BSA for 18 hours. At time point zero, culture medium was replaced with RPMI/10% FCS and treatments administered. Cells were treated with recombinant human macrophage migration inhibitory factor (MIF) 50 ng/ml and/or compound 5 at a 1-1000 molar ratio to the concentration of MIF. At a time point 30 hours later, cells were pulsed with 1 μCi/well of ^3H-thymidine. At a time point 48 hours after commencement of the experiment, cells were harvested using a semi-automated cell harvester. The radioactivity incorporated into DNA was determined by liquid scintillation counting, with results expressed as [^3H] thymidine incorporation.

[3] = system: murine endotoxic shock model (LPS); assay: murine endotoxic shock model, serum cytokines by ELISA; assay type: in vivo; conditions: mice
Protocol: The activity of 6,7-dihydroxynaphthalene-3-sulfonic acid (compound 6) was studied in the murine endotoxic shock model. This model has been previously shown to be dependent on MIF (35). […] Endotoxaemia was induced by intra-peritoneal injection of lipopolysaccharide (LPS) (15 mg/kg) in 400 μl saline. Mice were treated with a saline solution (control) only, a saline solution and LPS, or LPS and 6,7-dihydroxynaphthalene-2-sulfonic acid (compound 6) at a dose of 15 mg/kg body weight by intra-peritoneal injection at 24 hours, 12 hours and 1 hour before intra-peritoneal LPS injection. After 1.5 or 6 hours mice were humanely killed by CO2 inhalation then neck dislocation. Serum was obtained from blood obtained by cardiac puncture prior to death and measured for cytokines including interleukin 1 (IL-1) and interleukin 6 (IL-6) by ELISA. The production of IL-1 and IL-6 has been previously shown to be dependent on MIF (36).
The effect of compounds was further tested under a variety of conditions in animals exposed to endotoxic shock induced as above by the injection of 15 mg/kg LPS by intraperitoneal injection. In each case, compounds were administered by intraperitoneal injection at a dose of 15 mg/kg. Compound administration was associated with reductions in serum cytokine concentration under a variety of administration regimens.

[4] = system: antigen-specific T cell activation (splenic T lymphocytes from mBSA-immunised mice); assay: antigen-specific (mBSA) activation of splenic T lymphocytes in vitro, 3H-thymidine incorporation; assay type: cell-based, C57BL6/J mice; conditions: Mus musculus, T-cell, read-out: EC50 (T cell activation suppressed by 50% compared to vehicle-only-treated cells)
How it was run: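 Splenocytes from mBSA-immunised mice, erythrocytes lysed, stimulated with mBSA 10–50 μg/mL for 30 h at 37 °C, 5% CO2. 3H-thymidine (0.5 μCi/well) then added for 18 h; proliferation read by scintillation counting.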

O=S(=O)(O)c1ccc2cc(O)c(O)cc2c1 [Compound 6, 6,7-dihydroxynaphthalene-2-sulfonic acid]
inhibition of IL1-induced COX-2 expression, dose response (FIG. 3) ([1]; 0.01, 0.1, 1.0, 10 and 50 μM): Dose-dependent inhibition
inhibition at 1 µM ([1]; Homo sapiens, Fibroblast, compound 1 uM, IL-1 0.1 ng/ml, 6 hours, S112 cells, read-out: % inhibition of IL-1-induced COX2 expression (Effect)): 16.4%
inhibition at 10 µM ([1]; Homo sapiens, Fibroblast, compound 10 uM, IL-1 0.1 ng/ml, 6 hours, S112 cells, read-out: % inhibition of IL-1-induced COX2 expression (Effect)): 22.4%
inhibition at 25 µM ([1]; Homo sapiens, Fibroblast, compound 25 uM, IL-1 0.1 ng/ml, 6 hours, S112 cells, read-out: % inhibition of IL-1-induced COX2 expression (Effect)): 21.3%
inhibition at 50 µM ([1]; Homo sapiens, Fibroblast, compound 50 uM, IL-1 0.1 ng/ml, 6 hours, S112 cells, read-out: % inhibition of IL-1-induced COX2 expression (Effect)): 25.7%
inhibition at 100 µM ([1]; Homo sapiens, Fibroblast, compound 100 uM, IL-1 0.1 ng/ml, 6 hours, S112 cells, read-out: % inhibition of IL-1-induced COX2 expression (Effect)): 24.4%
% inhibition (IL-1 induced COX-2 expression) ([1]; Table 2 experiment 1: compound alone, 50 μM): 38.0%
effect on proliferation of S112 cells treated with recombinant human MIF (FIG. 12) ([2]; 0.013-1.3 μM, six separate experiments): marked inhibitory effect
inhibition at 0.13 µM ([2]; Homo sapiens, Fibroblast, concentration 0.13 μM, rhMIF 50 ng/ml, S112 cells, read-out: % inhibition of proliferation compared to vehicle plus rhMIF-treated cells): 47%
Serum TNF, LPS plus compound ([3]; compound 15 mg/kg i.p. at −18 h before LPS 15 mg/kg i.p.): 3970 ± 2565 pg/mL
Serum IL-6, LPS plus compound ([3]; compound 15 mg/kg i.p. at −24 h, −1 h before LPS 15 mg/kg i.p.): 150 ± 19 ng/mL and 104 ± 11 ng/mL
serum IL-1, LPS plus compound ([3]; compound 15 mg/kg i.p. at −24 h, −12 h, −1 h before LPS 15 mg/kg i.p.): 257 ± 70 ng/mL
EC50 ([4]; mBSA 10 μg/ml): 21.8 µM
EC50 ([4]; mBSA 50 μg/ml): 104 µM
